The values below come from patent US6469013B2, “Therapeutic compounds” (Parker Hughes Institute, priority 1998, dated 2002).

The IC50 is the midpoint of a concentration-inhibition curve. In general, melting point refers to the temperature, or range, at which the solid turns liquid.

One data set concerns the target T1, human JAK3 (Homo sapiens, UniProt P52333).
T1 sequence (P52333 1-1124): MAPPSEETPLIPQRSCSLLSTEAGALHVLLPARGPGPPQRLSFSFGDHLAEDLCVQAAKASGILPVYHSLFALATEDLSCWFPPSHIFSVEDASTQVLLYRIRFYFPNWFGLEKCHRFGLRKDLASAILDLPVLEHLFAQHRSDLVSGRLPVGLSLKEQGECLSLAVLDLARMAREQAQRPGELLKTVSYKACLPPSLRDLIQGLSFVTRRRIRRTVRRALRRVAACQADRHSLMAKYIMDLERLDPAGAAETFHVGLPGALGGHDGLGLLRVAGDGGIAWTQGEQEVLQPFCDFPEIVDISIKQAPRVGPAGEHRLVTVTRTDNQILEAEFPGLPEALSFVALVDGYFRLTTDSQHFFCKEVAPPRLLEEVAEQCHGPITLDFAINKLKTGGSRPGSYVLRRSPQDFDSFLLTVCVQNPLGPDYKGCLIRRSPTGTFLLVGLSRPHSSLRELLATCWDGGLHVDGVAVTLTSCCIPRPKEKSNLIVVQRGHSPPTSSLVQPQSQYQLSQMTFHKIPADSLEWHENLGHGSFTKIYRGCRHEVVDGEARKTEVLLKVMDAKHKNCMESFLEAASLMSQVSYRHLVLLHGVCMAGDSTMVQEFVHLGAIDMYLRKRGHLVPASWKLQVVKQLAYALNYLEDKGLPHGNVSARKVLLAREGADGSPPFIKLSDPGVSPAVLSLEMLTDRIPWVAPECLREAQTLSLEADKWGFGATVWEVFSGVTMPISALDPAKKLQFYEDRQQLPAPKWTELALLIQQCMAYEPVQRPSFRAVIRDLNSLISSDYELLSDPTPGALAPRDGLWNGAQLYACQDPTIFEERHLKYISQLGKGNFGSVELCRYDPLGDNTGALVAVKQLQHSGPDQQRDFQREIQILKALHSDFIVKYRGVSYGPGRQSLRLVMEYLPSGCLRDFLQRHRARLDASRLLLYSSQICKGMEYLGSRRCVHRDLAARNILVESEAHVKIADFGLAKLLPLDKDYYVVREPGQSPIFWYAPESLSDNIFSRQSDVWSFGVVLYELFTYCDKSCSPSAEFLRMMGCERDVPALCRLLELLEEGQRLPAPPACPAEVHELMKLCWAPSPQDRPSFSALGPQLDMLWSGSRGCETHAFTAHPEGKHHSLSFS
Kind of data set: JAK3 immune complex kinase assay (JAK3 immunoprecipitated from KL2 EBV-transformed B cell line). It counts as biochemical. As to the method:
(§1) In JAK3 immune complex kinase assays (17, 22), KL-2 EBV-transformed human lymphoblastoid B cells (native JAK3 kinase assays) or insect ovary cells (recombinant JAK3 kinase assays) were lysed with NP-40 lysis buffer (50 mM Tris, pH 8, 150 mM NaCl, 5 mM EDTA, 1% NP-40, 100 μM sodium orthovanadate, 100 μM sodium molybdate, 8 μg/ml aprotinin, 5 μg/ml leupeptin, and 500 μM PMSF) and centrifuged 10 min at 13000× g to remove insoluble material. Samples were immunoprecipitated with antisera prepared against JAK3. The antisera were diluted and immune complexes collected by incubation with 15 μl protein A Sepharose. After 4 washes with NP-40 lysis buffer, the protein A Sepharose beads were washed once in kinase buffer (20 mM MOPS, pH7, 10 mM MgCl2) and resuspended in the same buffer. Reactions were initiated by the addition of 25 μCi [γ^32P] ATP (5000 Ci/mMole) and unlabeled ATP to a final concentration of 5 μM. Reactions were terminated by boiling for 4 min in SDS sample buffer. Samples were run on 9.5% SDS polyacrylamide gels and labeled proteins were detected by autoradiography. Following electrophoresis, kinase gels were dried onto Whatman 3M filter paper and subjected to phosphorimaging on a Molecular Imager (Bio-Rad, Hercules, Calif.) as well as autoradiography on film. For each drug concentration, a kinase activity index (KA) was determined by comparing the kinase activity in phosphorimager units (PIU) to that of the baseline sample. In some experiments, cold kinase assays were performed, as described by (Uckun, F. M., et al., Clin. Can. Res. 4: 901-912, 1998).
We first used immune complex kinase assays to compare the effects of the synthesized dimethoxyquinazoline compounds on the enzymatic activity of human JAK3 immunoprecipitated from the KL2 EBV-transformed human lymphoblastoid B cell line.

For another data set, the target named is T2, recombinant murine JAK3 (Mus musculus, UniProt Q62137).
T2 sequence (Q62137 1-1100): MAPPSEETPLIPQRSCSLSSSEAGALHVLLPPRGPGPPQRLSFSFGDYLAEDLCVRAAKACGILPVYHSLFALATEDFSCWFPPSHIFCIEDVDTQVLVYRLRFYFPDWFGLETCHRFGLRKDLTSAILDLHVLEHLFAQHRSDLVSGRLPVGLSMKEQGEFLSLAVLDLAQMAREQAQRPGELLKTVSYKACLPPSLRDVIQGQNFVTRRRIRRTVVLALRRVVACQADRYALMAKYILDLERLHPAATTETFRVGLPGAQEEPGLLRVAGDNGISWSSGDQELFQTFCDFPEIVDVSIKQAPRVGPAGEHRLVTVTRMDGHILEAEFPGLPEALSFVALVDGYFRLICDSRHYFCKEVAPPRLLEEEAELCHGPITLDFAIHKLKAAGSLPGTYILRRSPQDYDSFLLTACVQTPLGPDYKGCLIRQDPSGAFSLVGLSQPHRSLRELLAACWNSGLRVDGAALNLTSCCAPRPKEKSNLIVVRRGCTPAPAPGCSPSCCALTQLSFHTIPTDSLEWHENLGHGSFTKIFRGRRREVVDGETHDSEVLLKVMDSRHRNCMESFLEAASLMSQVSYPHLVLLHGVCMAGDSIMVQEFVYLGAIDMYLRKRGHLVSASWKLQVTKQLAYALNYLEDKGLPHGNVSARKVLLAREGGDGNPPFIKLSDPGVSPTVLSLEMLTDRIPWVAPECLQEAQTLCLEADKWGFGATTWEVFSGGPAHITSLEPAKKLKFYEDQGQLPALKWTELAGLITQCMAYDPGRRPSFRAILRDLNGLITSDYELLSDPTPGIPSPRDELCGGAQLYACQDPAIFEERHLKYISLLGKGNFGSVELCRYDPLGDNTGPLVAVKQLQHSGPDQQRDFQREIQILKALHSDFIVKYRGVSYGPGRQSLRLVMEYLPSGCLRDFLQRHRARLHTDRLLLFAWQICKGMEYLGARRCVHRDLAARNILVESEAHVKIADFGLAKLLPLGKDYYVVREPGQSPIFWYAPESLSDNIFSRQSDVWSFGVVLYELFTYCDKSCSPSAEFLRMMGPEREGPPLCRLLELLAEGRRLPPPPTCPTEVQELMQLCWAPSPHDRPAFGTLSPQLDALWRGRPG
Kind of data set: Recombinant JAK3 immune complex kinase assay (baculovirus, Sf21). Type of data set: biochemical. Here is the method: Sf21 (IPLB-SF21-AE) cells (Vassilev, A., et al., J. Biol. Chem. 274: 1646-1656, 1999) derived from the ovarian tissue of the fall armyworm Spodotera frugiperda, were obtained from Invitrogen (Carlsbad, Calif.) and maintained at 26-28° C. in Grace's insect cell medium supplemented with 10% FBS and 1.0% antibiotic/antimycotic (GIBCO-BRL). Stock cells were maintained in suspension at 0.2-1.6×10^6/ml in 600 ml total culture volume in 1 L Bellco spinner flasks at 60-90 rpm. Cell viability was maintained at 95-100% as determined by trypan blue dye exclusion. Sf21 cells were infected with a baculovirus expression vector for BTK, SYK, JAK1, JAK2, or JAK3. Cells were harvested, lysed (10 MM Tris pH7.6, 100 mM NaCl, 1% Nonidet P40, 10% glycerol, 50 mM NaF, 100 μM Na3VO4, 50 μg/ml phenylmethylsulfonyl fluoride, 10 μg/ml aprotonin, 10 μg/ml leupeptin), the kinases were immunoprecipitated from the lysates, and their enzymatic activity assayed, as reported (Vassilev, A., et al., J. Biol. Chem. 274: 1646-1656, 1999; Uckun, F. M., et al., Science. 22: 1096-1100, 1996; Goodman, P. A., et al., J. Biol. Chem. 273: 17742-48, 1998; Mahajan, S., et al., Mol. Cell. Biol. 15: 5304-11, 1995; and Uckun, F. M., et al., Science. 267: 886-91, 1995). The immunoprecipitates were subjected to Western blot analysis as previously described (Vassilev, A., et al., J. Biol. Chem. 274: 1646-1656, 1999; and Uckun, F. M., et al., Science. 22: 1096-1100, 1996).
as §1, with “Following electrophoresis, kinase gels were dried onto Whatman 3M filter paper and subjected to phosphorimaging on a Molecular Imager (Bio-Rad, Hercules, Calif.) as well as autoradiography on film.” left out, “In some experiments, cold kinase assays were performed, as described by (Uckun, F. M., et al., Clin. Can. Res. 4: 901-912, 1998).” left out

Setting [1] is: JAK3 kinase assay, KL2 cell-derived human JAK3, read-out: IC50.

Like-named read-outs stand apart in the source and are kept apart here. A value given as a limit tells only on which side of the number the result lay.

Take `COc1cc2ncnc(Nc3cccc(Br)c3)c2cc1OC` [WHI-P79]: on human JAK3 (setting [1]), the IC50 was greater than 300 µM.
Still for that read-out and setting: the value for `COc1cc2ncnc(Nc3cc(Br)c(O)c(Br)c3)c2cc1OC` [WHI-P97, 4-(3′,5′-dibromo-4′-hydroxyl-phenyl)-amino-6,7-dimethoxyquinazoline] was 11 µM.
`COc1cc2ncnc(Nc3ccc(C)c(Br)c3)c2cc1OC` [WHI-P111] returned a melting point of 225 to 228 °C. Moreover, on human JAK3 (setting [1]), the half-maximal inhibitory concentration (IC50) is greater than 300 µM.
On to `COc1cc2ncnc(Nc3ccccc3O)c2cc1OC` [WHI-P132], for which, on human JAK3, the IC50 is greater than 300 µM. For the same molecule, on human JAK3 (biological assays), the “activity against JAK3 (in words)” value is “inactive against JAK3”.
Consider `COc1cc2ncnc(Nc3ccc(O)c(Br)c3)c2cc1OC` [WHI-P154, 4-(3′bromo4′-hydroxyl-phenyl)-amino-6,7-dimethoxyquinazoline], for which the IC50 on recombinant murine JAK3 (recombinant murine JAK3) was 128 µM; at recombinant murine JAK3 (recombinant murine JAK3, converted from μg/ml), roughly 128 µM.
Consider `COc1cc2ncnc(Nc3ccc(O)c(Cl)c3)c2cc1OC` [WHI-P197], for which the melting point was 245 °C (dec.).
Take `COc1cc2ncnc(Nc3ccccc3)c2cc1OC` [WHI-P258, 4-(phenyl)-amino-6,7-dimethoxyquinazoline]: at human JAK3 (setting [1]), the IC50 was greater than 300 µM.
